From patent US7153822B2, “Compositions and methods for modulating connexin hemichannels” (Wyeth, priority 2002, dated 2006)
Square brackets hold non-standard residues; d marks the D form. Peptide text beside a SMILES is read from it. dHyp = O=C(O)[C@H]1C[C@H](O)CN1

What was measured:
[1] = test system: connexin hemi-channels; assay: calcein dye uptake in cardiomyocytes under stress buffer (Example 6); type: cell-based, rat
Procedure: 1. Methods Ventricular myocytes were isolated from neonate rats by trypsin digestion and plated onto collagen-coated cover slips. After four days the myocytes formed confluent and synchronously beating sheets of cells. To measure dye uptake, cells were incubated in buffer containing 200 μM calcein for 30 minutes at room temperature. Then coverslips were thoroughly washed with control buffer and mounted in an open bath chamber and superfused with control buffer (RT). Cells were excited with 480 nm light by means of a Xenon lamp and a monochromator. Images of the fluorescence emitted at 510 nm were collected by a cooled CCD camera (Sensicam). Excitation control and image acquisition was controlled using Imaging workbench (Axon).
Under light microscopy three regions were placed over cardiomyocytes in an image. Then average fluorescence intensity was measured, and the procedure was repeated until 30 regions in 10 images had been measured. The average of these measurements were used as value for the given experimental condition, that is n=1. In each series one control incubation was performed and all experimental values are given as relative to this value.
Solutions: Control buffer (in mM): NaCl 136, KCl 4, MgCl2 0.8, CaCl2 1.8 HEPES 5, MES 5, Glucose 6, pH 7.3 Stress buffer (in mM): NaCl 136, KCl 8, MgCl2 0.8, CaCl2 1.8 HEPES 5, MES 5, Deoxy-glucose 10, pH 6.2

[2] = test system: neonatal rat ventricular cardiomyocytes; conditions: cited from earlier work
[3] = test system: connexin hemi-channels; assay: calcein dye uptake in cardiomyocytes under ischemia mimicking solution (Example 4); type: cell-based, rat; conditions: 10 nM co-incubation during metabolic stress (stress alone 38% higher), n=6
Procedure: (§1) 1. Cell culture: Briefly, the hearts from 20 neonate rats (age 1–2 days) were excised aseptically. The ventricles were isolated and cut into 4–6 pieces, which are digested in several steps in a Hanks buffered saline with trypsin and DNAse. The cells were then centrifuged and resuspended in MEM with 5% FCS. To eliminate non-muscle cells the suspension was preplated in petri dishes for 30 minutes at 37° C. The cells in suspesion were then seeded onto collagen coated coverslips.
2. Dye-uptake: The cover slips with cardiomyocytes were incubated for 30 minutes with control solution (PBS) containing in mM: Na^+ 152, K^+ 4.2, Cl^− 141.5, PO4^3− 9.5, Ca^2+ 0.9, Mg^2+ 0.5, glucose 6, pH 7.4. or an ischmia mimicking (injury) solution (as control only K^+ 8.2, no glucose, 10 mM deoxy-glucose, pH 6.5), both solutions containing 200 μM calcein. Then the cells were washed for 10 minutes with control solution.
The cover slips were mounted in an open chamber on the stage of an inverted microscope. Ten random fields were chosen and from each field three cells were chosen under conventional light microscopy. Then the cells were excited by 480 nm light and the fluorescence emmision measured at 510 nm, where the emission intensity is a measure of dye-uptake.
The effect of the compound 1 on dye-uptake was investigated under two conditions: […]

[4] = test system: cultured primary cardiomyocytes; assay: stimulus-activation interval (conduction velocity) during glucose removal, patch clamp; type: cell-based, rat; conditions: 10 nM, superfusion 20 min after 15 min without glucose
Procedure: as §1, with “In short” for “Briefly,”, “are” for “were”, “is” for “was”, “suspension are” for “suspesion were”, “coverslips. Seeding density will be adjusted to give confluent cultures.” for “coverslips.”
2. Electrophysiology: The cover slips with confluent cardiomyocytes are mounted in an open chamber on the stage of an inverted microscope and superfused with Dulbeccos phosphate buffered saline (PBS) by gravity driven flow at 1 ml/min, 37° C. The solution (PBS) contain (in mM): Na+ 152, K+ 4.2, Cl− 141.5, PO43− 9.5, Ca2+ 0.9, Mg2+ 0.5, pH 7.4. Patch clamp pipettes are pulled from 1.5 mm glass capillaries (GC150F-15, Harvard Apparatus) on a Sutter Flaming-Brown P-87 microelectrode puller and fire polished to a resistance of 4–6 MW. […]
The cells were perfused with control solution with 0.1 g/l BSA until a stable baseline in the stimulus-activation interval (SAI) was established. […] Date are expressed as percent change relative to baseline prior to removal of glucose from the media.

## CC(=O)N[C@H](Cc1ccc(O)cc1)C(=O)N1CCC[C@@H]1C(=O)N1C[C@@H](O)C[C@@H]1C(=O)NCC(=O)N[C@H](C)C(=O)NCC(N)=O [Compound 1, Ac-D-Tyr-D-Pro-D-4Hyp-Gly-D-Ala-Gly-NH2] (Ac-[dY][dP][dHyp]G[dA]G-NH2)
[1]; 0.1 pM to 10 nM, sigmoidal function, read-out: ED50 for reduction of stress-induced calcein uptake
  EC50: 3.3 ± 5.3 pM
[1]; stress buffer (stress alone 36.2±4.18% higher)
  average fluorescence intensity during maximal inhibition, above control: 6.9±1.7 % above control
[1]; stress, 0.1 pM to 10 nM
  effect on uptake of calcein: dose-dependently reduced the uptake of calcein
[2]; during oxygen and glucose deprivation (untreated app. 50%)
  noradrenalin-induced PI turnover, level relative to normal: ~90 % of the normal level
[2]; normal atmospheric and nutritional conditions
  noradrenalin-induced level of PI turnover: does not alter
[3]
  calcein dye uptake above control cells: 5%
[4]
  stimulus-activation interval: decreased the stimulus-activation interval
